From patent US9850219B1, “Phenothiazine derivatives and methods of use thereof” (Acenda Pharma, Inc., priority 2016, dated 2017)

Key:
A549 = experiment: Cytotoxicity, sulforhodamine B (SRB) assay, A549; type: cell-based, Human; conditions: A549, 48 h, NA indicates no activity
Text: (§1) Human non-small cell lung cancer (NSCLC) cell lines (e.g., A549, H441GL and H1299), colon cancer cell lines (e.g., HCT116 and DLD1), breast cancer cell lines (e.g., MCF7 and MDA-MB-231), and pancreatic cancer cell lines (e.g., PANC-1 and SUIT-2) were used in cytotoxicity studies. […] A549 and H441GL are EGFR-wild type adenocarcinoma cell lines. H1299 is an EGFR-wild type large cell carcinoma cell line. HCT116 and DLD1 are metastatic colon cell lines. MCF7 is a hormone-responsive breast cancer cell line. MDA-MB-231 is a triple-negative breast cancer cell line. PANC-1 is a metastatic adenocarcinoma cell line. SUIT-2 is a pancreatic ductal adenocarcinoma cell line.
(§2) All cell lines were grown and maintained in RPMI medium supplemented with 10% fetal bovine serum (FBS, Invitrogen), 2 mM L-glutamine, 100 U/mL penicillin, and 100 μg/mL streptomycin. For cell the culture experiment, stock solution (10 mM) of each test compound was dissolved in dimethyl sulfoxide (DMSO; Sigma).
(§3) Cells were plated in 96-well plates at a density of 2000 cells per well in triplicate. The cells in each well were treated on the third day (to ensure proper plating efficiency and vitality) with different concentrations (0-50 μM) of each test compound for 48 h.
(§4) Cell viability was assessed using the sulforhodamine B (SRB) assay. The medium was discarded, and the adherent cells were fixed by 100 μL of cold 10% trichloroacetic acid (w/v) in each well for 1 h at 4° C. After fixation, cells were stained with 100 μL/well of 0.4% (w/v, in 1% acetic acid) SRB solution for 30 min at room temperature, and then washed 5 times with 1% acetic acid. After air-drying, 100 μL of 10 mM Tris base was added to each well and the absorbance was read at 530 nm. Cytotoxicity is expressed as the percent of cells in drug treated wells relative to number of cells in the solvent only control (set to 100%). Each experiment was performed independently in triplicate and cytotoxicity IC50 value of each test compound was calculated from cytotoxicity data obtained at various concentrations.

MDA-MB-231 = experiment: Cytotoxicity, sulforhodamine B (SRB) assay, MDA-MB-231; type: cell-based, human; conditions: MDA-MB-231, Breast, 48 h
Text: (§5) Human non-small cell lung cancer (NSCLC) cell lines (e.g., A549, H441GL and H1299), colon cancer cell lines (e.g., HCT116 and DLD1), breast cancer cell lines (e.g., MCF7 and MDA-MB-231), and pancreatic cancer cell lines (e.g., PANC-1 and SUIT-2) were used in cytotoxicity studies. These NSCLC cell lines have intrinsic resistance to epidermal growth factor receptor (EGFR) inhibitors, e.g., gefitinib. A549 and H441GL are EGFR-wild type adenocarcinoma cell lines. H1299 is an EGFR-wild type large cell carcinoma cell line. HCT116 and DLD1 are metastatic colon cell lines. MCF7 is a hormone-responsive breast cancer cell line. MDA-MB-231 is a triple-negative breast cancer cell line. PANC-1 is a metastatic adenocarcinoma cell line. SUIT-2 is a pancreatic ductal adenocarcinoma cell line.
as §2, §3, §4

PANC-1 = experiment: Cytotoxicity, sulforhodamine B (SRB) assay, PANC-1; type: cell-based, human; conditions: PANC-1, Pancreas, 48 h, NA = no activity
Text: as §5, §2, §3, §4

MCF7 = experiment: Cytotoxicity, sulforhodamine B (SRB) assay, MCF7; type: cell-based, human; conditions: MCF7, Breast, 48 h
Text: as §5, §2, §3, §4

SUIT-2 = experiment: Cytotoxicity, sulforhodamine B (SRB) assay, SUIT-2; type: cell-based, human; conditions: SUIT-2, Pancreas, 48 h
Text: as §5, §2, §3, §4

DLD1 = experiment: Cytotoxicity, sulforhodamine B (SRB) assay, DLD1; type: cell-based, human; conditions: 48 h
Text: as §5, §2, §3, §4

H441GL = experiment: Cytotoxicity, sulforhodamine B (SRB) assay, H441GL; type: cell-based, Human; conditions: 48 h, NA indicates no activity
Text: as §1, §2, §3, §4

HCT116 = experiment: Cytotoxicity, sulforhodamine B (SRB) assay, HCT116; type: cell-based, human; conditions: 48 h
Text: as §5, §2, §3, §4

lung cancer cells = experiment: Cytotoxicity SRB assay, summary of Table 2; type: cell-based, Human; conditions: summary in words of Table 2
Text: as §5, §3, §4
NA indicates no activity.

H441GL cells [1] = experiment: Study 2: tumor size in mouse lung cancer model; type: in vivo, NOD/SCID mice; conditions: for Tumor Size [Fold Change from Week 3 (Mean ± SD, n = 4)] Week 3 / Tumor Size [Fold Change from Week 3 (Mean ± SD, n = 4)] Week 9 / Tumor Size [Fold Change from Week 3 (Mean ± SD, n = 4)] Week 13: Study 2, 0.0127 mmol/kg daily, i.p.; for Tumor Size [Fold Change from Week 3 (Mean ± SD, n = 4)] Week 3: Week 3 (baseline, start of treatment)
Protocol: (§6) H441GL cells (1×10^6 cells in 100 μL phosphate-buffered saline/injection) were subcutaneously injected into the right flank of NOD/SCID mice (female, 4-6 weeks old). Mice were allowed 2 weeks for tumor growth. On the first day of Week 3 post injection, tumor-bearing mice were randomly divided into control group (DMSO vehicle, intraperitoneal (i.p.) injection) and test compound treatment groups (5 mg/kg/day, 5 days/week, i.p. injection). Over the period of 10 weeks, tumorigenesis in both groups was measured using a caliper on a weekly basis. The change in tumor size was expressed as in fold change from Week 3. In this study body weight of each mouse was also recorded at the end of each study week.
In this study, the daily dose was 0.0127 mmol/kg instead of 5 mg/kg.

H441GL cells [2] = experiment: Study 1: tumor size in mouse lung cancer model; type: in vivo, NOD/SCID mice; conditions: for Tumor Size [Fold Change from Week 3 (Mean ± SD, n = 4)] Week 3 / Tumor Size [Fold Change from Week 3 (Mean ± SD, n = 4)] Week 9 / Tumor Size [Fold Change from Week 3 (Mean ± SD, n = 4)] Week 13: Study 1, 5 mg/kg/day, 5 days/week, i.p.; for Tumor Size [Fold Change from Week 3 (Mean ± SD, n = 4)] Week 3: Week 3 (baseline, start of treatment)
Protocol: as §6

H1299 = experiment: Cytotoxicity, sulforhodamine B (SRB) assay, H1299; type: cell-based; conditions: Homo sapiens, NCI-H1299, H1299, 48 h
Text: as §1, §2, §3, §4

[3] = Homo sapiens, DLD-1, DLD1, Colon
[4] = Homo sapiens, HCT-116, HCT116, Colon

Compound | IC50 (A549) | IC50 (MDA-MB-231) | IC50 (PANC-1) | IC50 (MCF7) | IC50 (SUIT-2) | IC50 (DLD1; DLD1, Colon) | IC50 (H441GL) | IC50 (HCT116; HCT116, Colon) | inhibition of cell proliferation of lung cancer cells (lung cancer cells) | IC50 (A549; Homo sapiens) | IC50 (MDA-MB-231; Homo sapiens) | IC50 (PANC-1; Homo sapiens) | IC50 (MCF7; Homo sapiens) | IC50 (SUIT-2; Homo sapiens) | IC50 (H441GL; Homo sapiens) | IC50 (H1299) | further results
COCCOCCOCCN1CCN(CCCN2c3ccccc3Sc3ccc(C(F)(F)F)cc32)CC1 [Compound 4-1b] | 26.3 µM | 14.7 µM | 20 µM | 13.1 µM | 13.3 µM | 8 µM | 10.5 µM | 6.5 µM | inhibit cell proliferation |  |  |  |  |  |  |  | 
COCCOCCOCCOCCOCCOCCN1CCN(CCCN2c3ccccc3Sc3ccc(C(F)(F)F)cc32)CC1 [Compound 4-2b] | 21.3 µM | 15.8 µM | 10.5 µM | 13.2 µM | 15.6 µM | 13.9 µM | 6.8 µM | 6.5 µM | inhibit cell proliferation |  |  |  |  |  |  |  | effect on tumor growth as compared to the vehicle control (H441GL cells [1]; Study 2, 0.0127 mmol/kg daily i.p., by Week 13, in words): largest effect of suppressing tumor growth; Tumor Size [Fold Change from Week 3 (Mean ± SD, n = 4)] Week 3 (H441GL cells [1]): 1 ± 0 Fold Change; Tumor Size [Fold Change from Week 3 (Mean ± SD, n = 4)] Week 9 (H441GL cells [1]): 9.4 ± 2.6 Fold Change; Tumor Size [Fold Change from Week 3 (Mean ± SD, n = 4)] Week 13 (H441GL cells [1]): 23.3 ± 6.2 Fold Change
COCCOCCOCCOCCOCCOCCOCCOCCOCCOCCOCCOCCN1CCN(CCCN2c3ccccc3Sc3ccc(C(F)(F)F)cc32)CC1 [Compound 4-3b] | 11.5 µM | 13.8 µM | 15.2 µM | 10.2 µM | 22 µM | 18 µM | 10.5 µM | 8.4 µM | inhibit cell proliferation |  |  |  |  |  |  |  | Tumor Size [Fold Change from Week 3 (Mean ± SD, n = 4)] Week 3 (H441GL cells [1]): 1 ± 0 Fold Change; Tumor Size [Fold Change from Week 3 (Mean ± SD, n = 4)] Week 9 (H441GL cells [1]): 11.7 ± 2.1 Fold Change; Tumor Size [Fold Change from Week 3 (Mean ± SD, n = 4)] Week 13 (H441GL cells [1]): 30.2 ± 6.2 Fold Change
COCCOCCOCCOC(=O)N1CCN(CCCN2c3ccccc3Sc3ccc(C(F)(F)F)cc32)CC1 [Compound 5-1b, NDT-CO—O—[CH2CH2O]3—CH3] | 3.8 µM | 21.6 µM | 18.2 µM | 13.6 µM | 21.4 µM | 35.9 µM | 3.2 µM | 10 µM | inhibit cell proliferation |  |  |  |  |  |  |  | Tumor Size [Fold Change from Week 3 (Mean ± SD, n = 4)] Week 3 (H441GL cells [2]): 1 ± 0 Fold Change; Tumor Size [Fold Change from Week 3 (Mean ± SD, n = 4)] Week 9 (H441GL cells [2]): 28.2 ± 7.4 Fold Change; Tumor Size [Fold Change from Week 3 (Mean ± SD, n = 4)] Week 13 (H441GL cells [2]): 69.8 ± 18.4 Fold Change
COCCOCCOCCOCCOCCOCCOC(=O)N1CCN(CCCN2c3ccccc3Sc3ccc(C(F)(F)F)cc32)CC1 [Compound 5-2b, NDT-CO—O—[CH2CH2O]6—CH3] | 3.2 µM | 15.8 µM | 12.5 µM | 12 µM | 10.8 µM | 15.2 µM | 2.7 µM | 7.3 µM | inhibit cell proliferation |  |  |  |  |  |  |  | effect on tumor growth as compared to the vehicle control (H441GL cells [2]; Study 1, 5 mg/kg/day i.p., in words): largest effect of suppressing tumor growth; Tumor Size [Fold Change from Week 3 (Mean ± SD, n = 4)] Week 3 (H441GL cells [2]): 1 ± 0 Fold Change; Tumor Size [Fold Change from Week 3 (Mean ± SD, n = 4)] Week 9 (H441GL cells [2]): 23.4 ± 7.5 Fold Change; Tumor Size [Fold Change from Week 3 (Mean ± SD, n = 4)] Week 13 (H441GL cells [2]): 51.6 ± 17.6 Fold Change
COCCOCCOCCOCCOCCOCCOCCOCCOCCOCCOCCOCCOC(=O)N1CCN(CCCN2c3ccccc3Sc3ccc(C(F)(F)F)cc32)CC1 [Compound 5-3b, NDT-CO—O—[CH2CH2O]12—CH3] | 2.7 µM | 9.2 µM | 3.6 µM | 8.3 µM | 10.8 µM | 18.2 µM | 1.6 µM | 7.9 µM | inhibit cell proliferation |  |  |  |  |  |  |  | Tumor Size [Fold Change from Week 3 (Mean ± SD, n = 4)] Week 3 (H441GL cells [2]): 1 ± 0 Fold Change; Tumor Size [Fold Change from Week 3 (Mean ± SD, n = 4)] Week 9 (H441GL cells [2]): 33.4 ± 8.2 Fold Change; Tumor Size [Fold Change from Week 3 (Mean ± SD, n = 4)] Week 13 (H441GL cells [2]): 79.4 ± 20.3 Fold Change
COCC(COCC(COCC(CN1CCN(CCCN2c3ccccc3Sc3ccc(Cl)cc32)CC1)OC)OC)OC (stereo not drawn) [Compound 24a, NDP-[CH2CH(OCH3)CH2O]3—CH3] |  |  |  |  |  |  |  |  | inhibit cell proliferation | 11.7 µM | 17.6 µM | 12.4 µM | 14.5 µM | 16.1 µM | 19.1 µM | 14.2 µM | 
COCC(COCC(COCC(CN1CCN(CCCN2c3ccccc3Sc3ccc(C(F)(F)F)cc32)CC1)OC)OC)OC (stereo not drawn) [Compound 24b, NDT-[CH2CH(OCH3)CH2O]3—CH3] |  |  |  |  |  |  |  |  | inhibit cell proliferation | 11.8 µM | 11.3 µM | 25.8 µM | 9.9 µM | 13.9 µM | 21 µM | 10.9 µM | IC50 (DLD1; [3]): 11.8 µM; IC50 (HCT116; [4]): 5.9 µM
COCC(COCC(COCC(COCCOCCOCCN1CCN(CCCN2c3ccccc3Sc3ccc(Cl)cc32)CC1)OC)OC)OC (stereo not drawn) [Compound 25-1a, NDP-[CH2CH2O]n—[CH2CH(OCH3)CH2O]3—CH3] |  |  |  |  |  |  |  |  | inhibit cell proliferation | 12.7 µM | 12.7 µM | 16.4 µM | 14.6 µM | 13 µM | 13.3 µM | 13.1 µM | Tumor Size [Fold Change from Week 3 (Mean ± SD, n = 4)] Week 3 (H441GL cells [1]): 1 ± 0 Fold Change; Tumor Size [Fold Change from Week 3 (Mean ± SD, n = 4)] Week 9 (H441GL cells [1]): 12.3 ± 2.0 Fold Change; Tumor Size [Fold Change from Week 3 (Mean ± SD, n = 4)] Week 13 (H441GL cells [1]): 31.5 ± 5.4 Fold Change
COCC(COCC(COCC(COCCOCCOCCOCCOCCOCCOCCOCCOCCN1CCN(CCCN2c3ccccc3Sc3ccc(Cl)cc32)CC1)OC)OC)OC (stereo not drawn) [Compound 25-2a, NDP-[CH2CH2O]n—[CH2CH(OCH3)CH2O]3—CH3] |  |  |  |  |  |  |  |  | inhibit cell proliferation | 16.7 µM | 16.8 µM | 35.4 µM | 13.3 µM | 25.6 µM | 17.5 µM | 16.8 µM | 
COCCOCCOCCOCC(COCC(COCC(CN1CCN(CCCN2c3ccccc3Sc3ccc(C(F)(F)F)cc32)CC1)OC)OC)OC (stereo not drawn) [Compound 26-1b, NDT-[CH2CH(OCH3)CH2O]3—[CH2CH2O]n—CH3] |  |  |  |  |  |  |  |  | inhibit cell proliferation | 14.4 µM | 6.4 µM |  | 10.3 µM | 12.9 µM | 12.1 µM | 20.4 µM | IC50 (DLD1; [3]): 13.9 µM; IC50 (HCT116; [4]): 8.5 µM
